According to patent publication US8372847B2, “Pyrazinone modulator of corticotropin-releasing factor receptor activity” (Bristol-Myers Squibb Company, priority 2008, dated 2013):

Legend:
Male Sprague-Dawley rats = experiment: Situational anxiety behavioral model in rats (latency to exit dark cylinder into open field); format: in vivo, rat
Excerpt: Situational Anxiety Behavioral Studies in Rats. (S)-4-(1-Cyclopropyl-2-methoxyethyl)-6-(6-(difluoromethoxy)-2,5-dimethylpyridin-3-ylamino)-5-oxo-4,5-dihydropyrazine-2-carbonitrile has been evaluated in a situational anxiety model to evaluate its anxiolytic potential. In this model, rats are placed in a small, darkened chamber located in an unfamiliar open field. Vehicle-treated rats spend most of the time within the chamber, consistent with a heightened state of anxiety [Takahashi L. K. et al, Behav. Neurosci. 103: 648-654, (1989)]. This model is sensitive to anxiolytics, including benzodiazepines such as chlordiazepoxide [Yang X-M. et al, J. Pharmacol. Exp. Ther. 255: 1064-1070, (1990)]. In addition, previous CRF1 antagonists, such as DMP696 and DMP904 [McElroy J. F. et al., Psychopharmacology 165: 86-92, (2002); Lelas S. et al., J. Pharmacol. Exp. Ther. 309: 293-302, (2004)] were effective this model. The effects of (S)-4-(1-cyclopropyl-2-methoxyethyl)-6-(6-(difluoromethoxy)-2,5-dimethylpyridin-3-ylamino)-5-oxo-4,5-dihydropyrazine-2-carbonitrile were compared with those of anxiolytic standards chlordiazepoxide (Librium®) and diazepam (Valium®) in this model. Male Sprague-Dawley rats weighing 180-300 g were purchased from Charles River Laboratories (Wilmington, Mass.). The rats were housed individually in suspended wire cages in colony rooms maintained at a constant temperature (21±2° C.) and humidity (50±10%). The rooms were illuminated 12 hours per day. The rats had ad libitum access to food and water throughout the studies. Behavioral studies were conducted between 0600 and 1300 h. Animals were maintained in accordance with the guidelines of the Animal Care and Use Committee of the Bristol-Myers Squibb Company, the “Guide for Care and Use of Laboratory Animals” (Institute of Animal Laboratory Resources, 1996), and the guidelines published in the National Institutes of Health Guide for the Care and Use of Laboratory Animals. Research protocols were approved by the Bristol-Myers Squibb Company Animal Care and Use Committee. All compounds were prepared in 0.25% methylcellulose and administered PO. Chlordiazepoxide, diazepam, and desipramine were purchased from Sigma Chemical Company. (S)-4-(1-Cyclopropyl-2-methoxyethyl)-6-(6-(difluoromethoxy)-2,5-dimethylpyridin-3-ylamino)-5-oxo-4,5-dihydropyrazine-2-carbonitrile was dosed in the volume of 2 ml/kg. All standards were dosed in the volume of 2 ml/kg. For all tests, data were analyzed by analysis of variance, followed by Dunnett's t-tests for individual comparisons. The significance value was set at 0.05. The data are presented in the text and figures as mean±standard error of the mean (SEM). Male Sprague-Dawley rats were habituated to handling and dosing the day before testing. On the day of testing, all compounds were administered PO by gavage 60 minutes before behavioral testing. To initiate testing, each animal was placed in a small galvanized steel cylinder (14 cm length, 10 cm diameter), which was placed lengthwise against one wall of an illuminated open field (106 cm length×92 cm width×50 cm height). The open field was illuminated by a 60-W incandescent bulb and illumination was titrated by a powerstat transformer to a 30-lux reading at the entrance to the cylinder. Behavior was assessed for 15 minutes by a trained observer unaware of treatment assignment. The latency of the animal to exit the cylinder, defined by the placement of all four paws into the open field, and explore the open field was recorded (in seconds). […] The Plexiglas chamber and the cylinder were cleaned with 1.0% glacial acetic acid between animals to prevent olfactory cues from influencing the behavior of subsequently tested animals. Following behavioral testing, animals were sacrificed and plasma samples and brains were taken for analysis of plasma exposure and central receptor occupancy.

CRF1 receptor = target: T1, CRF1 receptor (Rattus norvegicus, UniProt P35353); experiment: CRF1 binding assay, 125I-o-CRF competition, rat frontal cortex membrane; conditions: n=10; for Hill Slope: 125I-o-CRF binding, rat frontal cortex membrane; for IC50: 5 point and 10 point competition assays, read-out: IC50, inhibition of 125I-o-CRF binding to rat frontal cortex membrane
T1 construct: rat frontal cortex membrane as the receptor source; from tissue; host or cells: rat frontal cortex
T1 sequence (P35353 24-415): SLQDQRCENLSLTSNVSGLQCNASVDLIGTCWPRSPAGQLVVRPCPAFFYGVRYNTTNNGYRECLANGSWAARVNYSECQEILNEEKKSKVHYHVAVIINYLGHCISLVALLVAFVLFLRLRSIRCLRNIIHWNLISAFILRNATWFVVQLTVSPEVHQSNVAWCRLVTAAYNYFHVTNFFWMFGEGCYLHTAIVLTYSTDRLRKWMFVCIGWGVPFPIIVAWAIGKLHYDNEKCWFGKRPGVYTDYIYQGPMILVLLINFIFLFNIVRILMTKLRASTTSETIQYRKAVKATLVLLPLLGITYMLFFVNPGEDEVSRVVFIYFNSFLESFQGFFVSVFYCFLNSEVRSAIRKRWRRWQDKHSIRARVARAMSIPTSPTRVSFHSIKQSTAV
Protocol: CRF1 Binding Assay. Frozen rat frontal cortex was thawed rapidly in assay buffer containing 50 mM Hepes (pH 7.0 at 23° C.), 10 mM MgCl2, 2 mM EGTA, 1 μg/ml aprotinin, 1 μg/ml leupeptin, 1 μg/ml pepstatin A, 0.005% Triton X-100, 10 U/ml bacitracin and 0.1% ovalbumin and homogenized. The suspension was centrifuged at 32000×g for 30 minutes. The resulting supernatant was discarded and the pellet resuspended by homogenization in assay buffer and centrifuged again. The supernatant was discarded and the pellet resuspended by homogenization in assay buffer and frozen at −70° C. On the day of the experiment aliquots of the homogenate were thawed quickly and 25 μg/well added to 150 pM ^125I-ovine-CRF (^125I-o-CRF) and drugs in a total volume of 100 μl assay buffer. The assay mixture was incubated for 2 hr at 21° C. Bound and free radioligand were then separated by rapid filtration using glass fiber filters (Whatman GF/B, pretreated with 0.3% PEI (polyethylenimine)) on a Brandel Cell Harvester. Filters were then washed multiple times with ice cold wash buffer (PBS w/o Ca^2+ and Mg^2+, 0.01% Triton X-100; pH 7.0 at 23° C.). Non-specific binding was defined using 1 μM DMP696, a CRF1 selective antagonist [Li, Y-W. et al., CNS Drug Reviews 11: 21-52, (2005)]. Filters were then counted in a Wallac Wizard gamma counter. IC50 values were determined in a five point (five drug concentrations) or ten point (ten drug concentrations) competition assay using non-linear regression by Microsoft Excel-fit.
Binding Results. The primary screen to determine binding potency (IC50 value) of (S)-4-(1-cyclopropyl-2-methoxyethyl)-6-(6-(difluoromethoxy)-2,5-dimethylpyridin-3-ylamino)-5-oxo-4,5-dihydropyrazine-2-carbonitrile at the CRF1 receptor was a competition binding experiment utilizing ^125I-o-CRF as the labeled peptide ligand and rat frontal cortex membrane as the receptor source. […] (S)-4-(1-Cyclopropyl-2-methoxyethyl)-6-(6-(difluoromethoxy)-2,5-dimethylpyridin-3-ylamino)-5-oxo-4,5-dihydropyrazine-2-carbonitrile also bound with high affinity to the native CRF1 receptors present on the human retinoblastoma cell line Y79.

Hill Slope (CRF1 receptor)	IC50 (CRF1 receptor)	Structure (SMILES)	decrease in exit latency (Male Sprague-Dawley rats; 10 mg/kg, positive control, dose-response study)	decrease in exit latency (Male Sprague-Dawley rats; 10 mg/kg, positive control, first single-dose study)	decrease in exit latency (Male Sprague-Dawley rats; 10 mg/kg, positive control, second single-dose study)	decrease in exit latency (Male Sprague-Dawley rats; 10 mg/kg, positive control, third single-dose study)	effect on exit latency (Male Sprague-Dawley rats; 0.56 mg/kg PO, dose-response study)	effect on exit latency (Male Sprague-Dawley rats; 1.0 mg/kg PO, dose-response study)	significant decrease of exit latency (Male Sprague-Dawley rats; 1.0 mg/kg PO, single-dose study)	decrease in exit latency relative to vehicle-treated controls (Male Sprague-Dawley rats; 1.8 mg/kg PO, dose-response study)	decrease in exit latency (Male Sprague-Dawley rats; 1.8 mg/kg PO, single-dose study)	decrease in exit latency relative to vehicle-treated controls (Male Sprague-Dawley rats; 3.0 mg/kg PO, dose-response study)	decrease in exit latency (Male Sprague-Dawley rats; 3.0 mg/kg PO, single-dose study)	lowest effective dose (decrease of exit latency) (Male Sprague-Dawley rats; PO, 60 minutes before testing)	anxiolytic-like effects, potency compared with standards (Male Sprague-Dawley rats; PO, summary)
1.00±0.02	1.39 ± 0.09 nM	COCC(COC)Nc1nc(C)nc2c(-c3ccc(Cl)cc3Cl)c(C)nn12 [DMP696]	62%	57%	74%	81%									
0.94±0.03	0.86 ± 0.04 nM	COC[C@H](C1CC1)n1cc(C#N)nc(Nc2cc(C)c(OC(F)F)nc2C)c1=O [(S)-4-(1-cyclopropyl-2-methoxyethyl)-6-(6-(difluoromethoxy)-2,5-dimethylpyridin-3-ylamino)-5-oxo-4,5-dihydropyrazine-2-carbonitrile]					did not significantly alter exit latency	did not significantly alter exit latency	but not of 1.0 mg/kg	60%	53%	56%	51%	1.8 mg/kg	comparable potency to the benzodiazepines diazepam and chlordiazepoxide
